Data on 2 compounds can be found in paper PMC7839693 (Chemistry (Weinheim an Der Bergstrasse, Germany), 2020).

In data set [1] the test system is M21 human melanoma cells. The data set can be described thus: In vitro cytotoxicity assay. In kind it is cell-based. Conditions: incubated alone (no β-glucuronidase).
Data set [2] concerns the target human integrin αvβ3 (Homo sapiens, UniProt P05106+P06756, DEL719-788). The data set can be described thus: Solid-phase receptor binding assay.
Data set [3] concerns the target E. coli β‐glucuronidase (Escherichia coli, UniProt P05804). Nature of the data set: β-glucuronidase cleavage assay / drug release. It is filed as in vitro ADME.
Data set [4] in a line: Pilot experiment: stability of Cry-55gly under alkaline conditions. It is filed as physicochemical. Conditions: LiOH/H2O, 0 °C, 30 minutes, HPLC-MS.
For data set [5] the following is noted: cited from earlier work.
The conditions of data set [6]: cited from earlier work. The source holds these as a separate data set.

For `COc1ccc(C[C@H]2NC(=O)/C=C/C[C@@H]([C@H](C)[C@@H](OC(=O)CNC(=O)OCc3cc(NC(=O)CCCc4cn(CCC(=O)NCCCC[C@@H]5NC(=O)[C@@H](Cc6ccccc6)NC(=O)[C@H](CC(=O)O)NC(=O)CNC(=O)[C@H](CCCNC(=N)N)NC5=O)nn4)cc(O[C@@H]4O[C@H](C(=O)O)[C@@H](O)[C@H](O)[C@H]4O)c3)[C@@H](Cl)c3ccccc3)OC(=O)[C@H](CC(C)C)OC(=O)C(C)(C)CNC2=O)cc1Cl` [compound 2, c(RGDfK)‐(m)‐GlcA‐linker‐Cry‐55gly], the “decreased activity relative to the free drug 3” value in data set [1] is 70 fold. For the same compound, the IC50 in data set [2] came to 11.7 nM. In addition, in data set [3] (E. coli β-glucuronidase 200 U mL-1, 37 °C, 60 min, HPLC and UPLC-MS), the “release of Cry-55gly after β-glucuronidase cleavage” value is listed as “not released over time”. Moreover, the “stability in the absence of enzyme (control)” value in data set [3] (control experiments without β-glucuronidase, buffer, 37 °C, HPLC) is reported as “stable”.

Take `COc1ccc(C[C@H]2NC(=O)/C=C/C[C@@H]([C@H](C)[C@@H](OC(=O)CN)[C@@H](Cl)c3ccccc3)OC(=O)[C@H](CC(C)C)OC(=O)C(C)(C)CNC2=O)cc1Cl` [compound 3, cryptophycin‐55 glycinate]: the “conversion into the epoxide (cryptophycin-52, 4)” value in data set [4] worked out at 70%. Further, the “stability in mouse plasma” value in data set [5] is listed as “excellent stability”. The “stability in human plasma” value in data set [6] was “excellent stability”.

By IC50 is commonly meant the concentration that gives 50% inhibition. High values mean lower potency, low ones higher potency.
